Reference: patent US4481137A, “Glycoproteins and processes for their production” (Mochida Pharmaceutical Co., Ltd., priority 1982, dated 1984)
≈ marks a conversion by molar mass, not a printed value. Where “and” joins values, the source holds several entries; their conditions need not be identical. Identical values can stand only once.

Key:
Lewis's lung carcinoma = assay: Influence on the survival days of lung carcinoma bearing mice; type: in vivo, mouse
Source text: BDF1 -strain male mice weighing 20-25 g were transplanted with 2×10^6 cells of Lewis's lung carcinoma intramuscularly to the right thigh, and the survival days were observed.

Lewis's lung cancer = assay: Influence on the lung metastasis of cancer; type: in vivo, mouse; details: mean ± SE
Procedure: Groups of BDF1 -strain male mice weighing 20-30 g, 6 animals in each group, had transplanted subcutaneously into their backs 2 mm square segments of Lewis's lung cancer. […] On the 21st day after transplantation, the mass of primary tumor was isolated and weighed, and the number of the metastasized nodes in the animal's lungs was calculated according to the method of Wexler, H. (J. Natl. Cancer Institute, Vol. 36 641 (1966)).

mouse leukemia L1210 = assay: Influence on the survival days of leukemic mice, L1210; type: in vivo
Source text: (§1) BDF1 -strain male mice weighing 20-25 g were intraperitoneally transplanted with 10^5 cells per animal of mouse leukemia L1210 or 10^6 cells per animal of mouse leukemia […], and the period of survival in days was observed.

mouse leukemia P388 = assay: Influence on the survival days of leukemic mice, P388; type: in vivo
Source text: as §1

Sarcoma 180 = assay: Influence on mice transplanted with Sarcoma 180, survival; type: in vivo, mouse
Source text: (§2) Male mice (ddY-Strain) weighing 25-30 g were intraperitoneally transplanted with 3×10^6 cells per animal of Sarcoma 180 or Ehrlich ascites tumor and the period of survival in days was observed.

Ehrlich ascites tumor = assay: Influence on mice transplanted with Ehrlich ascites tumor, survival; type: in vivo, mouse
Source text: as §2

mouse melanoma B 16 = assay: Influence on the survival period of melanoma bearing mice; type: in vivo
Source text: BDF1 -strain male mice weighing 20-25 g had transplanted subcutaneously in their back 10^6 cells per animal of mouse melanoma B 16, and the survival days were observed.

[1] = system: acute myelogenous leukemia cells M-1; assay: Effect on inducing differentiation of tumor cells; type: cell-based; details: 20.0 ng/ml, 48 h (control 1)
Procedure: According to the method of Hozumi, M. et al (Cancer Research, Vol, 40, 2919-2924 (1980)), 5×10^5 cells of acute myelogenous leukemia cells M-1 (supplied from Dr. Motoo Hozumi, Saitama Cancer Center) were suspended in 1 ml of Eagle's medium containing 10% calf serum and also containing amino acids and vitamins in amounts twice the ordinary levels, to which each test substance had been added, and cultured at 37° C. for 48 hours in a 5% CO2, 95% air atmosphere. Thereafter, the cells were resuspended in a medium containing 0.2% polystyrene latex particles (Dow Chemical Co.) and incubated at 37° C. for 4 hours. Then the total number of cells which phagocytotized the particles and the total number of cells were counted under a light microscope, and the differentiation rate was calculated from the ratio of these cells.

MX-1 cells = assay: Selectivity of cytotoxic effect, MX-1 cells (breast cancer); type: cell-based, Human; details: MX-1, 48 h, 37°C
Procedure: (§3) Samples of 10^5 cells of each of tumor cell lines including KB cells (nasopharynx cancer), MX-1 cells (breast cancer, supplied from Dr. Shigeru Tsukagoshi, Cancer Institute), HEp-2 cells (throat cancer) and HEL cells (hepatoma, Flow Co.) and of normal cell lines including intestine 407 cells, Girardi heart cells, Chang Liver cells, Vero cells (monkey kidney) and MDCK cells (dog kidney) (Flow Co.), all of which had been precultured for 24 hours respectively, and 10^5 cells of each of P388 and L1210 cells (leukemia, supplied from Dr. Shigeru Tsukagoshi, Cancer Institute), which were used immediately, were each cultured in 1 ml of Eagle's medium containing 10% calf serum and each test substance at 37° C. for 48 hours in a 5% CO2, 95% air atmosphere. Thereafter the number of the viable cells not stained by Trypan Blue was counted under a light microscope, and the concentration of the test substance at which 50% of the cells are killed was calculated against a control taken as 100. […] One unit of the Lymphotoxins and CBF is expressed by a conventional index which is based on the cytotoxicity on mouse L cells (Eds., Bloom, B. R. & Grade, P. R. "In Vitro Methods in Cell-mediated Immunity", Academic Press,1979).

[2] = system: 3-Methylcholanthrene-induced tumor; assay: Influence on methylcholanthrene-induced tumor; type: in vivo, ddY-strain mice; details: daily dose 0.5 mg/kg, mean ± SE (control 10.5 ± 2.3)
Procedure: 3-Methylcholanthrene dissolved in olive oil was subcutaneously injected to the lateral abdomen of ddY-strain mice, weighing 20-25 g, 8 animals in each group, at 0.5 mg per mouse. CBX3 obtained in Example 26 or 29 was intravenously administered to the mice once a day for 21 days from about 60 days after the 3-Methylcholanthren injection. On the 21st day after the first CBX3 administration, the volume of the tumor was measured.

[3] = system: tumor cells and normal cells; assay: Cytotoxicity, selectivity tumor cells versus normal cells; type: cell-based
Source text: One unit of CB is defined to be the amount of the substance at which the growth of 10^5 nasopharynx cancer of KB cell is inhibited by 50%.
as §3

Vero cells = assay: Selectivity of cytotoxic effect, normal cells Vero (monkey kidney); type: cell-based; details: 48 h, 37°C
Procedure: as §3

P388 cells = assay: Selectivity of cytotoxic effect, P388 cells (leukemia); type: cell-based, Mouse; details: P388, 48 h, 37°C
Procedure: as §3

HEL cells = assay: Selectivity of cytotoxic effect, HEL cells (hepatoma); type: cell-based, Human; details: 48 h, 37°C
Procedure: as §3

[4] = system: Primary Culture Rat Liver; assay: Selectivity of cytotoxic effect, primary culture rat liver; type: cell-based; details: primary culture rat liver (normal), 48 h, 37°C; read-out: Concentration for 50% Inhibition of Growth
KB cells = assay: Selectivity of cytotoxic effect, KB cells (nasopharynx cancer); type: cell-based, Human; details: 48 h, 37°C
Procedure: as §3

L1210 cells = assay: Selectivity of cytotoxic effect, L1210 cells (leukemia); type: cell-based, Mouse; details: L1210, 48 h, 37°C
Procedure: as §3

intestine 407 cells = assay: Selectivity of cytotoxic effect, normal cells intestine 407; type: cell-based, Human; details: intestine 407 (normal), 37°C
Procedure: as §3

Chang Liver cells = assay: Selectivity of cytotoxic effect, normal cells Chang Liver; type: cell-based, Human; details: 48 h, 37°C
Procedure: as §3

HEp-2 cells = assay: Selectivity of cytotoxic effect, HEp-2 cells (throat cancer); type: cell-based, Human; details: HEp-2, 48 h, 37°C
Procedure: as §3

human breast cancer MX-1 = assay: Influence on breast cancer bearing mice; type: in vivo, BALB/C strain nude mice; details: daily dose 0.5 mg/kg, mean ± SE (control 9.7 ± 2.2)
Procedure: BALB/C strain nude mice weighing 20-25 g, 6 animals in each group, had transplanted subcutaneously into their backs 2 mm square segments of human breast cancer MX-1. CBX3 obtained in Example 26 or 29 was intravenously administered into the mice for 14 days from the 14th day after the transplantation. On the 15th day after the first administration,the volume of the primary tumor was measured.

MDCK cells = assay: Selectivity of cytotoxic effect, normal cells MDCK (dog kidney); type: cell-based; details: 48 h, 37°C
Procedure: as §3

[5] = system: tumor cells and normal cells; details: as reported in the literature; cited from earlier work
[6] = daily dose 0.5 mg/kg, 0.5 mg/kg
[7] = Mus musculus, read-out: Concentration for 50% Inhibition of Growth
[8] = Homo sapiens, read-out: Concentration for 50% Inhibition of Growth

O=P1(N(CCCl)CCCl)NCCCO1 (centres unmarked) [Cyclophosphamide]
Average Survival Days (% of control group) (Lewis's lung carcinoma; daily dose 20 mg/kg, 20 mg/kg): 163% and 164%
Tumor Weight (Lewis's lung cancer; Table 7-1 Experiment 1 (control 9.6 ± 1.9), daily dose printed 20 unit/kg): 3.4 ± 0.7 g
No. of Metastasized Nodes in Lung (Lewis's lung cancer; Table 7-1 Experiment 1 (control 29.2 ± 7.3), daily dose printed 20 unit/kg): 0.4 ± 0.2
Tumor Weight (Lewis's lung cancer; Table 7-2 (control 7.8 ± 0.5), daily dose printed 20 unit/kg): 3.5 ± 0.6 g
No. of Metastasized Nodes in Lung (Lewis's lung cancer; Table 7-2, daily dose printed 20 unit/kg): 0.6 ± 0.3
Average Survival Days (% of control group) (mouse leukemia L1210; L1210, daily dose 20 mg/kg, 20 mg/kg): 172% and 149%
Average Survival Days (% of control group) (mouse leukemia P388; P388, daily dose 20 mg/kg, 20 mg/kg): 147% and 145%
Average Survival Days (% of control group) (Sarcoma 180; Sarcoma 180, daily dose 20 mg/kg, 20 mg/kg): 172% and 170%
Average Survival Days (% of control group) (Ehrlich ascites tumor; daily dose 20 mg/kg, 20 mg/kg): 212% and 206%
Average Survival Days (% of control group) (mouse melanoma B 16; melanoma B 16, daily dose 20 mg/kg): 158%

C[C@@H]1C[C@H]2[C@@H]3CCC4=CC(=O)C=C[C@]4(C)[C@@]3(F)[C@@H](O)C[C@]2(C)[C@@]1(O)C(=O)CO [Dexamethasone]
Differentiation Rate [1]: 25%

CO[C@@]12[C@H](COC(N)=O)C3=C(C(=O)C(C)=C(N)C3=O)N1C[C@@H]1N[C@@H]12 [Mitomycin C]
Average Survival Days (% of control group) (Lewis's lung carcinoma; [6]): 121% and 120%
IC50 (MX-1 cells; Homo sapiens, MX1, 48 h, read-out: Concentration for 50% Inhibition of Growth): 32 µg/mL (≈ 95.7 µM)
Concentration for 50% Inhibition of Growth (MX-1 cells): 30 µg/mL
Tumor Volume [2]: 6.6 ± 1.3 cm^3
Cytotoxicity, selectivity for tumor cells over normal cells (in words) [3]: nonselective cytotoxicity to the normal cells and the tumor cells
Concentration for 50% Inhibition of Growth (Vero cells): 50 µg/mL
IC50 (Vero cells; Primates, Vero, read-out: Concentration for 50% Inhibition of Growth): 52 µg/mL (≈ 156 µM)
IC50 (P388 cells; [7]): 36 µg/mL (≈ 108 µM)
Concentration for 50% Inhibition of Growth (P388 cells): 37 µg/mL
Concentration for 50% Inhibition of Growth (HEL cells): 25 µg/mL
IC50 (HEL cells; [8]): 26 µg/mL (≈ 77.8 µM)
Average Survival Days (% of control group) (mouse leukemia L1210; L1210, daily dose 0.5 mg/kg, 0.5 mg/kg): 128% and 136%
Average Survival Days (% of control group) (mouse leukemia L1210; L1210, dose 5.0 mg/kg (Table 4-3)): 132%
IC50 [4]: 61 µg/mL (≈ 182 µM)
Average Survival Days (% of control group) (mouse leukemia P388; P388, daily dose 0.5 mg/kg, 0.5 mg/kg): 133% and 130%
Average Survival Days (% of control group) (mouse leukemia P388; P388, dose 5.0 mg/kg (Table 4-3)): 141%
Concentration for 50% Inhibition of Growth (KB cells): 35 µg/mL
IC50 (KB cells; [8]): 34 µg/mL (≈ 102 µM)
Concentration for 50% Inhibition of Growth (L1210 cells): 44 µg/mL
IC50 (L1210 cells; [7]): 43 µg/mL (≈ 129 µM)
IC50 (intestine 407 cells; Homo sapiens, Intestine 407, 48 h, read-out: Concentration for 50% Inhibition of Growth): 32 µg/mL (≈ 95.7 µM)
Concentration for 50% Inhibition of Growth (intestine 407 cells; 48 h): 35 µg/mL
Average Survival Days (% of control group) (Sarcoma 180; Sarcoma 180, daily dose 0.5 mg/kg, 0.5 mg/kg): 140% and 138% and 142%
Concentration for 50% Inhibition of Growth (Chang Liver cells): 21 µg/mL
IC50 (Chang Liver cells; Homo sapiens, Chang liver, read-out: Concentration for 50% Inhibition of Growth): 19 µg/mL (≈ 56.8 µM)
Average Survival Days (% of control group) (Ehrlich ascites tumor; [6]): 168% and 164% and 166%
Concentration for 50% Inhibition of Growth (HEp-2 cells): 18 µg/mL
IC50 (HEp-2 cells; [8]): 17 µg/mL (≈ 50.8 µM)
Tumor Volume (human breast cancer MX-1): 4.4 ± 1.1 cm^3
Average Survival Days (% of control group) (mouse melanoma B 16; melanoma B 16, daily dose 0.5 mg/kg, 0.5 mg/kg): 140%
Concentration for 50% Inhibition of Growth (MDCK cells): 44 µg/mL
IC50 (MDCK cells; Canis lupus familiaris, MDCK, read-out: Concentration for 50% Inhibition of Growth): 41 µg/mL (≈ 123 µM)

Tumor Necrosis Factor
Cytotoxic effect, selectivity for tumor cells over normal cells (in words) [5]: selective cytotoxic effect on tumor cells
